Structures can show the parent of a compound that is named as a salt.
What was measured:
KRas G12C [1] = biological target: T1, KRas G12C (Homo sapiens, UniProt P01116, C118S/C51S/C80L/G12C); assay: KRas G12C Modification Assay (LCMS detection of covalent adduct); type: binding; conditions: 5 μM concentration for 3 hours
T1 construct: GDP-loaded K-Ras (1-169) G12C, C51S, C80L, C118S
Procedure: This Example illustrates that exemplary compounds of the present invention covalently bind to KRas G12C using a LCMS assay to detect a covalent adduct of the exemplary compound and KRAS G12C.
The protein concentration of GDP-loaded K-Ras (1-169) G12C, C51S, C80L, C118S and GTP-loaded K-Ras (1-169) G12C, C51S, C80L, C118S, Q61H was adjusted to 2 μM in K-Ras Assay Buffer (25 mM HEPES, 150 mM NaCl, 5 mM MgCl2, and 10 mM Octyl β-glucopyranoside at pH 7.5). A 10 μL aliquot of each protein solution was transferred to a 384 well microtiter plate. Initial compound stocks were generated at fifty times their desired final assay concentration in DMSO.
Exemplary compounds of formula (I) were diluted 25-fold into K-Ras Assay Buffer to a final of two times their final concentration. A 10 μL aliquot of each diluted compound solution was added to each of the protein solutions in the microtiter plate to initiate reaction. Typical final compound concentrations were 3.0, 5.0 and 25.0 μM. At each time point, the reactions were quenched with 20 μL of a 25 mM acetic acid solution. Usual assay endpoints were 15, 180 and 1440 minutes. Once all reactions were quenched, the plates were heat sealed and the samples were injected into a LC/MS system for data acquisition.
Data collection took place on an Agilent 6520 Q-TOF Accurate Mass Spectrometer. Samples were injected in their liquid phase onto a C-3 reverse phase column to remove assay buffer and prepare the samples for mass spectrometer. The proteins were eluted from the column using an acetonitrile gradient and fed directly into the mass analyzer. Initial raw data analysis took place in Agilent MassHunter software immediately post data acquisition.
Raw data analysis of the intact protein was exclusively a deconvolution of the multiple charge states of each protein in solution using a maximum entropy deconvolution provided in Mass Hunter. To minimize complexity, only the data over limited mass ranges were considered for analysis, with a minimum of one Dalton mass step intervals. The heights of all masses identified during raw data analysis were exported to be further analyzed in Spotfire® data analysis software.
Final data analysis was a multistep process in the Spotfire® data analysis software package. Briefly, each protein mass was calculated as a percent of the total signal of that sample, that percentage was normalized to the percentage of signal of the protein in the absence of reactive compounds. Those normalized signals were reported as normalized percent of control (POC). […] Key: N.D. is not determined.

KRas G12C [2] = biological target: T2, KRas G12C (Homo sapiens, UniProt P01116, G12C); assay: Cellular inhibition of KRas G12C measured by Phospho-ERK in NCI-11358 cells; type: cell-based; conditions: NCI-11358 cells (ATCC CRL-5807), 3 hours; read-out: Inhibition (IC50, pERK (Thr202/Tyr204) signal normalized with GAPDH)
T2 construct: NCI-11358 cells (ATCC CRL-5807) express KRas G12C; host or cells: NCI-H358
Procedure: The cellular inhibition of KRAs G12C by exemplary compounds of the present invention was determined by measuring the amount of a downstream marker of KRas activity, phosphorylated ERK (“Phospho-ERK”).
NCI-11358 cells (ATCC CRL-5807) express KRas G12C and were grown in RPMI medium supplemented with 10% fetal bovine serum, penicillin/streptomycin and 10 mM HEPES. Cells were plated in poly-D-Lysine coated 96-well plates at a concentration of 50,000 cells/well and allowed to attach for 8-12 hours. Diluted compounds were then added at a final concentration of 0.5% DMSO. After 3 hours, the medium was removed, 150 μL of 4% formaldehyde was added and the plates were incubated for 20 minutes. The plates were washed with PBS, and permeabilized using 150 μL of ice cold 100% methanol for 10 minutes. Non-specific antibody binding to the plates was blocked using 100 μL Licor Blocking Buffer (Li-Cor Biotechnology, Lincoln NE) for 1 hour at room temperature. Positive control samples and samples lacking cells were parallel processed with test samples as standards.
The amount Phospho-ERK was determined using an antibody specific for the phosphorylated form of ERK and compared to the amount of GAPDH. Primary antibodies used for detection were added as follows: Phospho-ERK (Cell Signaling cs9101) diluted 1:500 and GAPDH (Millipore MAB374) diluted 1:5000 in Licor block+0.05% Tween 20. The plates were incubated for 2 hours at room temperature. The plates were washed with PBS+0.05% Tween 20.
Secondary antibodies used to visualize primary antibodies were added as follows: Anti-rabbit-680 diluted 1:1000 and Anti-mouse-800 diluted 1:1000 in Licor Block+0.05% Tween 20 and incubated for 1 hour at room temperature. The plates were washed with PBS+0.05% Tween 20. A 100 μL aliquot of PBS was added to each well and the plates were read on a LICOR AERIUS plate reader.
The pERK (Thr202/Tyr204) signal was normalized with the GAPDH signal and percent of DMSO control values were calculated. IC50 values were generated using a 4 parameter fit of the dose response curve. Key: “A”: ≤1 μM, “B”>1 μM and N.D.=not determined.

SMILES | POC (normalized percent of control, covalent modification of KRas G12C) (KRas G12C [1]; 5 µM) | IC50 (KRas G12C [2]) | POC (normalized percent of control, covalent modification of KRas G12C) (KRas G12C [1])
C=CC(=O)N1CC(CN2C(=O)COc3cc(-c4c(C)ccc5[nH]ncc45)c(Cl)cc32)C1 (single isomer, unassigned) [Example 10] | 53% of control | > 1000 nM | –
C=CC(=O)N1CC(CN2C(=O)COc3cc(-c4c(C)ccc5[nH]ncc45)c(Cl)cc32)C1 (single isomer, unassigned) [Example 11] | 96% of control | > 1000 nM | –
C=CC(=O)N1CC(CN2C(=O)[C@H](CCN(C)C)Oc3cc(-c4c(C)ccc5[nH]ncc45)c(Cl)cc32)C1 (single isomer, unassigned) [Example 35] | 86% of control | ≤ 1000 nM | –
C=CC(=O)N1CC(CN2C(=O)[C@H](CCN(C)C)Oc3cc(-c4c(C)ccc5[nH]ncc45)c(Cl)cc32)C1 (single isomer, unassigned) [Example 36] | 27% of control | > 1000 nM | –
C=CC(=O)N1CC(CN2C(=O)COc3cc(-c4cc(O)cc5ccccc45)c(Cl)cc32)C1 [Example 1, 4-((1-acryloylazetidin-3-yl)methyl)-6-chloro-7-(3-hydroxynaphthalen-1-yl)-2H-benzo[b][1,4]oxazin-3(4H)-one] | – | ≤ 1000 nM | 104% of control
C=CC(=O)N1CC(CN2C(=O)C(CC(C)C)Oc3cc(-c4cc(O)cc5ccccc45)c(Cl)cc32)C1 (stereo not drawn) [Example 2, 4-((1-acryloylazetidin-3-yl)methyl)-6-chloro-7-(3-hydroxynaphthalen-1-yl)-2-isobutyl-2H-benzo[b][1,4]oxazin-3(4H)-one] | – | > 1000 nM | 94% of control
C=CC(=O)N1CC(CN2C(=O)C(C3CCN(C)CC3)Oc3cc(-c4cc(O)cc5ccccc45)c(Cl)cc32)C1 (stereo not drawn) [Example 3, 4-((1-acryloylazetidin-3-yl)methyl)-6-chloro-7-(3-hydroxynaphthalen-1-yl)-2-(1-methylpiperidin-4-yl)-2H-benzo[b][1,4]oxazin-3(4H)-one] | – | ≤ 1000 nM | 91% of control
C=CC(=O)N1CC(CN2C(=O)C(CN3CCCC3)Oc3cc(-c4cc(O)cc5ccccc45)c(Cl)cc32)C1 (stereo not drawn) [Example 4, 4-((1-acryloylazetidin-3-yl)methyl)-6-chloro-7-(3-hydroxynaphthalen-1-yl)-2-(pyrrolidin-1-ylmethyl)-2H-benzo[b][1,4]oxazin-3(4H)-one] | – | ≤ 1000 nM | 104% of control
C=CC(=O)N1CC(CN2C(=O)C(CN3CCC(N(C)C)CC3)Oc3cc(-c4cc(O)cc5ccccc45)c(Cl)cc32)C1 (stereo not drawn) [Example 5, 4-((1-acryloylazetidin-3-yl)methyl)-6-chloro-2-((4-(dimethylamino)piperidin-1-yl)methyl)-7-(3-hydroxynaphthalen-1-yl)-2H-benzo[b][1,4]oxazin-3(4H)-one] | – | ≤ 1000 nM | 95% of control
C=CC(=O)N1CC(CN2C(=O)COc3c2ccc(-c2cc(O)cc4ccccc24)c3F)C1 [Example 6, 4-((1-acryloylazetidin-3-yl)methyl)-8-fluoro-7-(3-hydroxynaphthalen-1-yl)-2H-benzo[b][1,4]oxazin-3(4H)-one] | – | > 1000 nM | 86% of control
C=CC(=O)N1CC(CN2C(=O)COc3cc(-c4cc(O)ccc4OC(F)(F)F)c(Cl)cc32)C1 [Example 7, 4-((1-acryloylazetidin-3-yl)methyl)-6-chloro-7-(5-hydroxy-2-(trifluoromethoxy)phenyl)-2H-benzo[b][1,4]oxazin-3(4H)-one] | – | > 1000 nM | 96% of control
C=CC(=O)N1CC(CN2C(=O)C(CN3CCN(C)CC3)Oc3cc(-c4cc(O)cc5ccccc45)c(Cl)cc32)C1 (stereo not drawn) [Example 8, 4-((1-acryloylazetidin-3-yl)methyl)-6-chloro-7-(3-hydroxynaphthalen-1-yl)-2-((4-methylpiperazin-1-yl)methyl)-2H-benzo[b][1,4]oxazin-3(4H)-one bis(2,2,2-trifluoroacetate)] | – | ≤ 1000 nM | 87% of control
C=CC(=O)N1CC(CN2C(=O)COc3cc(-c4cc(O)cc5ccccc45)ccc32)C1 [Example 12, 4-((1-acryloylazetidin-3-yl)methyl)-7-(3-hydroxynaphthalen-1-yl)-2H-benzo[b][1,4]oxazin-3(4H)-one] | – | > 1000 nM | 94% of control
C=CC(=O)N1CC(F)(CN2C(=O)COc3cc(-c4cc(O)cc5ccccc45)c(Cl)cc32)C1 [Example 13, 4-((1-acryloyl-3-fluoroazetidin-3-yl)methyl)-6-chloro-7-(3-hydroxynaphthalen-1-yl)-2H-benzo[b][1,4]oxazin-3(4H)-one] | – | ≤ 1000 nM | 93% of control
C=CC(=O)N1CC(CN2C(=O)CSc3cc(-c4cc(O)cc5ccccc45)ccc32)C1 [Example 14, 4-((1-acryloylazetidin-3-yl)methyl)-7-(3-hydroxynaphthalen-1-yl)-2H-benzo[b][1,4]thiazin-3(4H)-one] | – | > 1000 nM | 102% of control
C=CC(=O)N1CC(CN2C(=O)COc3cc(-c4c(C)ccc5[nH]cnc45)c(Cl)cc32)C1 [Example 15, 4-((1-acryloylazetidin-3-yl)methyl)-6-chloro-7-(5-methyl-1H-benzo[d]imidazol-4-yl)-2H-benzo[b][1,4]oxazin-3(4H)-one trifluoroacetate salt] | – | > 1000 nM | 97% of control
C=CC(=O)N1CC(CN2C(=O)COc3c2cc(Cl)c(-c2cc(O)cc4ccccc24)c3F)C1 [Example 16, 4-((1-acryloylazetidin-3-yl)methyl)-6-chloro-8-fluoro-7-(3-hydroxynaphthalen-1-yl)-2H-benzo[b][1,4]oxazin-3(4H)-one] | – | > 1000 nM | 100% of control
C=CC(=O)N1CC(C)(CN2C(=O)COc3cc(-c4cc(O)cc5ccccc45)c(Cl)cc32)C1 [Example 17, 4-((1-acryloyl-3-methylazetidin-3-yl)methyl)-6-chloro-7-(3-hydroxynaphthalen-1-yl)-2H-benzo[b][1,4]oxazin-3(4H)-one] | – | > 1000 nM | 85% of control
